# Laboratory results as given in patent US4148785A, “Analgesic polypeptide” (American Home Products Corporation, priority 1978, dated 1979).
# Where a SMILES comes first, the peptide text is derived from it. [ ]: non-standard residue; d: D form.
# Tests used:
# rat = rat tail flick test (method of D-Amour and Smith), analgesic activity; assay type: in vivo
# Excerpt: The representative polypeptide of this invention Tyr--D--Ala--Gly--Phe--D--Val--NH2, gave the following results in the reference standard rat tail flick test: […]
# rats = settings: injection in the brain ventricle in rats; cited from earlier work
# mouse vas deferens = settings: cited from earlier work
# guinea pig ileum = settings: cited from earlier work
# opiate receptor = settings: brain homogenates; cited from earlier work
# [1] = intracerebroventricular; cited from earlier work
molecule,measurement,setting,value
"CC(C)[C@@H](NC(=O)[C@H](Cc1ccccc1)NC(=O)CNC(=O)[C@@H](C)NC(=O)[C@@H](N)Cc1ccc(O)cc1)C(N)=O [Tyr--D--Ala--Gly--Phe--D--Val--NH2, L-tyrosyl-D-alanylglycyl-L-phenylalanyl-D-valine amide] (H-Y[dA]GF[dV]-NH2)",No. showing analgesia/No. tested,"rat; intravenous 1.0 milligram/kilogram, 15 minutes after administration",2/6
same,No. showing analgesia/No. tested,"rat; intravenous 1.0 milligram/kilogram, 30 minutes after administration",1/6
same,No. showing analgesia/No. tested,"rat; intravenous 1.0 milligram/kilogram, 60 minutes after administration",0/6
same,No. showing analgesia/No. tested,"rat; intravenous 2.5 milligram/kilogram, 15 minutes after administration",5/6
same,No. showing analgesia/No. tested,"rat; intravenous 2.5 milligram/kilogram, 30 minutes after administration",3/5
same,No. showing analgesia/No. tested,"rat; intravenous 2.5 milligram/kilogram, 60 minutes after administration",3/5
same,No. showing analgesia/No. tested,"rat; intravenous 5.0 milligram/kilogram, 15 minutes after administration",6/6
same,No. showing analgesia/No. tested,"rat; intravenous 5.0 milligram/kilogram, 30 minutes after administration",5/6
same,No. showing analgesia/No. tested,"rat; intravenous 5.0 milligram/kilogram, 60 minutes after administration",0/5
same,No. showing analgesia/No. tested,"rat; intravenous .25 milligram/kilogram, 15 minutes after administration",1/6
same,No. showing analgesia/No. tested,"rat; intravenous .25 milligram/kilogram, 30 minutes after administration",0/6
same,No. showing analgesia/No. tested,"rat; intravenous .25 milligram/kilogram, 60 minutes after administration",1/6
same,No. showing analgesia/No. tested,"rat; intravenous .5 milligram/kilogram, 15 minutes after administration",4/6
same,No. showing analgesia/No. tested,"rat; intravenous .5 milligram/kilogram, 30 minutes after administration",4/6
same,No. showing analgesia/No. tested,"rat; intravenous .5 milligram/kilogram, 60 minutes after administration",1/6
same,No. showing analgesia/No. tested,"rat; subcutaneous 5.0 milligram/kilogram, 30 minutes after administration",2/6
same,No. showing analgesia/No. tested,"rat; subcutaneous 5.0 milligram/kilogram, 60 minutes after administration",1/6
same,No. showing analgesia/No. tested,"rat; subcutaneous 5.0 milligram/kilogram, 90 minutes after administration",0/6
same,No. showing analgesia/No. tested,"rat; subcutaneous 5.0 milligram/kilogram, 120 minutes after administration",0/6
same,No. showing analgesia/No. tested,"rat; subcutaneous 20.0 milligram/kilogram, 30 minutes after administration",6/6
same,No. showing analgesia/No. tested,"rat; subcutaneous 20.0 milligram/kilogram, 60 minutes after administration",3/6
same,No. showing analgesia/No. tested,"rat; subcutaneous 20.0 milligram/kilogram, 90 minutes after administration",3/6
same,No. showing analgesia/No. tested,"rat; subcutaneous 20.0 milligram/kilogram, 120 minutes after administration",2/6
H--Tyr--Gly--Gly--Phe--Leu--OH [leucine-enkephalin],analgesia,rats,profound analgesia that is fully reversible by naloxone
same,block of electrically evoked contractions,mouse vas deferens,block electrically evoked contractions
same,block of electrically evoked contractions,guinea pig ileum,block electrically evoked contractions
same,inhibition of stereospecific receptor binding of 3H-naloxone,opiate receptor,inhibit the sterospecific receptor binding
H--Tyr--Gly--Gly--Phe--Met--OH [methionine-enkephalin],analgesia,rats,profound analgesia that is fully reversible by naloxone
same,block of electrically evoked contractions,mouse vas deferens,block electrically evoked contractions
same,block of electrically evoked contractions,guinea pig ileum,block electrically evoked contractions
same,inhibition of stereospecific receptor binding of 3H-naloxone,opiate receptor,inhibit the sterospecific receptor binding
Tyr--D--Ala--Gly--Phe--D--Leu,activity when administered intracerebroventricularly,[1],activity
